In patent US10172994B2, “Hemodiafiltration method” (Fresenius Medical Care Deutschland GmbH, priority 2012, dated 2019):

Biological target: bovine serum albumin (Bos taurus, UniProt P02769)
Assay: HF field effect 1 to 170 MHz on separation of phenylacetic acid from BSA solution in dialysis module (HPLC)
Type: in vitro ADME
Details: BSA 60 mg/ml, 1 mmol/l toxin
Protocol: Examination of the HF field effect in the frequency range 1 to 170 MHz.
The HF field was varied in subbands of 10 MHz in the frequency range 1-170 MHz and was compared with a control experiment without an HF field.
The quantitative determination of the phenylacetic acid was performed using HPLC.
The results of the experiments are collected in FIG. 4. […] The effect was particularly pronounced at 54.6% in the subband from 110 to 120 MHz.

Sequence of bovine serum albumin (P02769 25-607): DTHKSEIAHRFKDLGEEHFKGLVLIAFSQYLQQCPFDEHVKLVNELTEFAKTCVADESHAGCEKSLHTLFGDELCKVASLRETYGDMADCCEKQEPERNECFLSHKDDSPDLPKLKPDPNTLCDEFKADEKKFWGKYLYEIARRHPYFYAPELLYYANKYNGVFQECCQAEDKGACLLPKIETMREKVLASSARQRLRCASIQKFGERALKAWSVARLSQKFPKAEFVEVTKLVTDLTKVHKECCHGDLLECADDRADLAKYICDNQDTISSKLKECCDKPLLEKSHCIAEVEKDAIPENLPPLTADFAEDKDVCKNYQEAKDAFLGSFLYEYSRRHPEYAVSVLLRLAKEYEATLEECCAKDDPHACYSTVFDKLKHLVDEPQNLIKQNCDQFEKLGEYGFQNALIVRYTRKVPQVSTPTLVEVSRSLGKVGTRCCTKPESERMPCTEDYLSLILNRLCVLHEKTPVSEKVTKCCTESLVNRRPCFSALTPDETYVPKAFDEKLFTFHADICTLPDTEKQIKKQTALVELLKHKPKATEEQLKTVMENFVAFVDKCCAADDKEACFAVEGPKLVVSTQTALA

O=C(O)Cc1ccccc1 [phenylacetic acid]
increase of separation rate under the influence of the HF field (HF field 1-170 MHz in subbands of 10 MHz vs control without HF field): at least 45.3% | increase of separation rate under the influence of the HF field (subband from 110 to 120 MHz vs control without HF field): 54.6%
